{"source": "PubChem BioAssay (NCI)", "test_in_all_cases": "growth of human tumour cells (NCI), 384-well format", "key": {"MCF7 breast": {"system": "MCF7 breast"}, "OVCAR-4 ovarian": {"system": "OVCAR-4 ovarian"}, "HOP-62 NSCLC": {"system": "HOP-62 NSCLC"}, "HCT-15 colon": {"system": "HCT-15 colon"}, "TK-10 renal": {"system": "TK-10 renal"}, "UO-31 renal": {"system": "UO-31 renal"}, "HCT-116 colon": {"system": "HCT-116 colon"}, "SN12C renal": {"system": "SN12C renal"}, "OVCAR-3 ovarian": {"system": "OVCAR-3 ovarian"}, "SK-MEL-28 melanoma": {"system": "SK-MEL-28 melanoma"}, "A549 NSCLC": {"system": "A549 NSCLC"}, "IGROV1 ovarian": {"system": "IGROV1 ovarian"}, "SNB-75 CNS": {"system": "SNB-75 CNS"}, "RPMI-8226 leukemia": {"system": "RPMI-8226 leukemia"}, "SF-268 CNS": {"system": "SF-268 CNS"}, "NCI-H23 lung": {"system": "NCI-H23 lung"}, "K-562 leukemia": {"system": "K-562 leukemia"}, "786-0 renal": {"system": "786-0 renal"}, "DU-145 prostate": {"system": "DU-145 prostate"}, "U251 glioblastoma": {"system": "U251 glioblastoma"}, "SF-295 CNS": {"system": "SF-295 CNS"}, "NCI-H460 NSCLC": {"system": "NCI-H460 NSCLC"}, "MALME-3M melanoma": {"system": "MALME-3M melanoma"}, "M14 melanoma": {"system": "M14 melanoma"}, "SNB-19 CNS": {"system": "SNB-19 CNS"}, "NCI-H522 lung": {"system": "NCI-H522 lung"}, "ACHN renal": {"system": "ACHN renal"}, "RXF 393 renal": {"system": "RXF 393 renal"}}, "note": "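GI50 is the concentration that inhibits growth by half. TGI: total growth inhibition.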", "data": [{"molecule": "COC1CCC(N2C(=O)CNc3ncc(-c4ccc(C(C)(C)O)nc4)nc32)CC1", "note": "(stereo unspecified)", "values": [{"measurement": "GI50", "setting": "MCF7 breast", "result": 68.6, "unit": "nM"}, {"measurement": "TGI", "setting": "MCF7 breast", "result": "> 100000", "unit": "nM"}, {"measurement": "GI50", "setting": "OVCAR-4 ovarian", "result": 901, "unit": "nM"}, {"measurement": "TGI", "setting": "OVCAR-4 ovarian", "result": 8950, "unit": "nM"}, {"measurement": "GI50", "setting": "HOP-62 NSCLC", "result": 672, "unit": "nM"}, {"measurement": "TGI", "setting": "HOP-62 NSCLC", "result": "> 100000", "unit": "nM"}, {"measurement": "GI50", "setting": "HCT-15 colon", "result": 448, "unit": "nM"}, {"measurement": "TGI", "setting": "HCT-15 colon", "result": 44700, "unit": "nM"}, {"measurement": "GI50", "setting": "TK-10 renal", "result": 504, "unit": "nM"}, {"measurement": "TGI", "setting": "TK-10 renal", "result": 17200, "unit": "nM"}, {"measurement": "GI50", "setting": "UO-31 renal", "result": 358, "unit": "nM"}, {"measurement": "TGI", "setting": "UO-31 renal", "result": "> 100000", "unit": "nM"}, {"measurement": "GI50", "setting": "HCT-116 colon", "result": 690, "unit": "nM"}, {"measurement": "TGI", "setting": "HCT-116 colon", "result": 21800, "unit": "nM"}, {"measurement": "GI50", "setting": "SN12C renal", "result": 275, "unit": "nM"}, {"measurement": "TGI", "setting": "SN12C renal", "result": 68400, "unit": "nM"}, {"measurement": "GI50", "setting": "OVCAR-3 ovarian", "result": 386, "unit": "nM"}, {"measurement": "TGI", "setting": "OVCAR-3 ovarian", "result": 22800, "unit": "nM"}, {"measurement": "GI50", "setting": "SK-MEL-28 melanoma", "result": 234, "unit": "nM"}, {"measurement": "TGI", "setting": "SK-MEL-28 melanoma", "result": "> 100000", "unit": "nM"}, {"measurement": "GI50", "setting": "A549 NSCLC", "result": 358, "unit": "nM"}, {"measurement": "TGI", "setting": "A549 NSCLC", "result": "> 100000", "unit": "nM"}, {"measurement": "GI50", "setting": "IGROV1 ovarian", "result": 137, "unit": "nM"}, {"measurement": "TGI", "setting": "IGROV1 ovarian", "result": 12800, "unit": "nM"}, {"measurement": "GI50", "setting": "SNB-75 CNS", "result": 256, "unit": "nM"}, {"measurement": "TGI", "setting": "SNB-75 CNS", "result": 22900, "unit": "nM"}, {"measurement": "GI50", "setting": "RPMI-8226 leukemia", "result": 25, "unit": "nM"}, {"measurement": "TGI", "setting": "RPMI-8226 leukemia", "result": 110, "unit": "nM"}, {"measurement": "GI50", "setting": "SF-268 CNS", "result": 2180, "unit": "nM"}, {"measurement": "TGI", "setting": "SF-268 CNS", "result": 20000, "unit": "nM"}, {"measurement": "GI50", "setting": "NCI-H23 lung", "result": 1460, "unit": "nM"}, {"measurement": "TGI", "setting": "NCI-H23 lung", "result": "> 100000", "unit": "nM"}, {"measurement": "GI50", "setting": "K-562 leukemia", "result": 517, "unit": "nM"}, {"measurement": "TGI", "setting": "K-562 leukemia", "result": 72000, "unit": "nM"}, {"measurement": "GI50", "setting": "786-0 renal", "result": 911, "unit": "nM"}, {"measurement": "TGI", "setting": "786-0 renal", "result": "> 100000", "unit": "nM"}, {"measurement": "GI50", "setting": "DU-145 prostate", "result": 660, "unit": "nM"}, {"measurement": "TGI", "setting": "DU-145 prostate", "result": 20200, "unit": "nM"}, {"measurement": "GI50", "setting": "U251 glioblastoma", "result": 1900, "unit": "nM"}, {"measurement": "TGI", "setting": "U251 glioblastoma", "result": 41200, "unit": "nM"}, {"measurement": "GI50", "setting": "SF-295 CNS", "result": 184, "unit": "nM"}, {"measurement": "TGI", "setting": "SF-295 CNS", "result": 1120, "unit": "nM"}, {"measurement": "GI50", "setting": "NCI-H460 NSCLC", "result": 65.9, "unit": "nM"}, {"measurement": "TGI", "setting": "NCI-H460 NSCLC", "result": 16300, "unit": "nM"}, {"measurement": "GI50", "setting": "MALME-3M melanoma", "result": 68.9, "unit": "nM"}, {"measurement": "TGI", "setting": "MALME-3M melanoma", "result": 587, "unit": "nM"}, {"measurement": "GI50", "setting": "M14 melanoma", "result": 296, "unit": "nM"}, {"measurement": "TGI", "setting": "M14 melanoma", "result": "> 100000", "unit": "nM"}, {"measurement": "GI50", "setting": "SNB-19 CNS", "result": 5340, "unit": "nM"}, {"measurement": "TGI", "setting": "SNB-19 CNS", "result": "> 100000", "unit": "nM"}, {"measurement": "GI50", "setting": "NCI-H522 lung", "result": 200, "unit": "nM"}, {"measurement": "TGI", "setting": "NCI-H522 lung", "result": 21400, "unit": "nM"}, {"measurement": "GI50", "setting": "ACHN renal", "result": 479, "unit": "nM"}, {"measurement": "TGI", "setting": "ACHN renal", "result": "> 100000", "unit": "nM"}, {"measurement": "GI50", "setting": "RXF 393 renal", "result": 438, "unit": "nM"}, {"measurement": "TGI", "setting": "RXF 393 renal", "result": 92400, "unit": "nM"}]}]}
